From patent publication US20240238259A1, “COMBINATION THERAPY FOR PULMONARY HYPERTENSION” (VIVUS LLC, priority 2015, published 2024)
Read-outs that look alike come from different tables or passages of the source.

Experiments:
PAH patients = details: for symptoms and exercise capacity: within 1 month of initiation, ambrisentan
patients with PAH = assay: Phase IIA randomized, double-blind, placebo-controlled clinical trial of tacrolimus in PAH (NCT01647945); type: in vivo, human
Experimental: Tacrolimus was selected as the agent for increasing BMPR2 signaling. A phase IIA trial to assess the safety and tolerability of different doses tacrolimus (goal blood level <2 ng/ml, 2-3 ng/ml, 3-5 ng/ml) vs Placebo was conducted (Clinical Trials Identifier: NCT01647945). The secondary endpoints were change in clinical worsening, change in 6-min walk distance, NT-pro BNP, Uric Acid, and novel echo parameters. The phase IIA trial was a single center trial with 23 patients. This study was open to male or female subjects, 18-70 years of age, with pulmonary hypertension. The Inclusion and Exclusion criteria used are below:
• 1. Age ≥18 and <70 years • 2. Diagnosis of WHO Group I Pulmonary Arterial Hypertension (PAH) (Idiopathic (I)PAH, Heritable PAH (including Hereditary Hemorrhagic Telangiectasia), Associated (A)PAH (including collagen vascular disorders, drugs+toxins exposure, congenital heart disease, and portopulmonary disease). • 3. Stable on active PAH treatment including any prostacycline or phosphodiesterase inhibitors and the endothelin antagonist Ambrisentan alone or in combination (stability defined as: <10% change in 6 MWD, no change in NYHA class, no hospitalization or addition of PAH therapy for at least 3 months). • 4. Previous Right Heart Catheterization (RHC) that documented: • a. Mean PAP ≥25 mmHg. • b. Pulmonary capillary wedge pressure <15 mmHg. • c. Pulmonary Vascular Resistance ≥3.0 Wood units or 240 dynes/see/cm5 • 5. All NYHA/WHO functional classes. • 6. Willingness of female subjects to use birth control, or be post-menopausal, or status post hysterectomy.
• 1. WHO Group II-V Pulmonary Hypertension. • 2. Current or prior experimental PAH treatments within the last 6 months (including but not limited to tyrosine kinase inhibitors, rho-kinase inhibitors, or cGMP modulators). • 3. Current active treatment with the dual endothelin receptor antagonist bosentan. • 4. Total lung Capacity (TLC)<60% predicted; if TLC b/w 60 and 70% predicted, high resolution computed tomography must be available to exclude significant interstitial lung disease. • 5. Forced expiratory volume (FEV1)/Forced Vital Capacity (FVC)<70% predicted and FEV1<60% predicted • 6. Significant left-sided heart disease (based on screening Echocardiogram): • a. Significant aortic or mitral valve disease • b. Diastolic dysfunction≥Grade II • c. Left Ventricle (LV) systolic function <45% • d. Pericardial constriction • e. Restrictive cardiomyopathy • f. Significant coronary disease with demonstrable ischemia. • 7. Chronic renal insufficiency defined as an estimated creatinine clearance <30 ml/min (by Modification of diet in renal disease (MDRD) equation). • 8. Current atrial arrhythmias not under optimal control. • 9. Uncontrolled systemic hypertension: SBP>160 mm or DBP>100 mm • 10. […]

[1] = system: BMPR2 signaling (BRE from the Id1 promoter linked to luciferase, C2C12 mouse myoblastoma reporter cells); assay: BRE-Luc reporter high throughput screen for compounds that increase BMPR2 signaling; type: cell-based; details: screen of library of >3,600 compounds
Experimental: A C2C12 mouse myoblastoma reporter cells line where the BRE (BMP Response Element) from the Id1 promoter (a main downstream target of BMP signaling) was linked to luciferase (BRE-Luc) was used to identify compounds that increase BMPR2 signaling. Thus, activation of the BMP pathway was measured by luminescence. A high throughput screen of a library containing greater than 3,600 compounds was used.

[2] = all three patients, first 3-6 months
[3] = patient #1, after 3 months of treatment
[4] = patient #1, baseline, 3 and 6 months
[5] = patient #2, 12 months follow-up
[6] = patient #2, baseline, 3 and 6 months
[7] = patient #2, within 3 months of treatment

C=CC[C@@H]1/C=C(\C)C[C@H](C)C[C@H](OC)[C@H]2O[C@@](O)(C(=O)C(=O)N3CCCC[C@H]3C(=O)O[C@H](/C(C)=C/[C@@H]3CC[C@@H](O)[C@H](OC)C3)[C@H](C)[C@@H](O)CC1=O)[C@H](C)C[C@@H]2OC [Tacrolimus, tacrolimus]
REVEAL risk score (PAH patients; all 3 patients): improved
hospital admission for worsening of heart failure (PAH patients; all three patients, during treatment): None of the patients was admitted
6 MWD (PAH patients; [2]): increase
NT-pro BNP (PAH patients; [2]): decrease
tolerability (PAH patients; human, in vivo): tolerated low-dose tacrolimus very well
infections (PAH patients; human, in vivo, iv): did not report an increase of infections
symptoms and exercise capacity (PAH patients; patient #1 (IPAH), trough goal 1.5-2.5 ng/mL, on epoprostenol, sildenafil): substantial improvement
PAH associated hospitalizations (PAH patients; patient #1, 12 months after initiation (3 in the 12 months prior)): free of any PAH associated hospitalizations
NT-proBNP (PAH patients; [3]): 678 pg/mL
NYHA class symptoms (PAH patients; [3]): NYHA Class I
improvement in 6 MWD (PAH patients; [3]): approximately 100 meters
lowering of NT-proBNP (PAH patients; [3]): > 50%
RV ejection fraction (RVEF), cMRI (PAH patients; [4]): stable
RV end-diastolic volume index (RVEDVi), cMRI (PAH patients; [4]): stable
RV stroke volume index (RVSVi), cMRI (PAH patients; [4]): increased
cardiac index (CI), cMRI (PAH patients; [4]): increased
REVEAL risk score (PAH patients; patient #1, on treatment (11 at transplant listing)): 3
lung transplant list status (PAH patients; patient #1, within 2 months): placed on a status 7 (hold) for transplantation
symptoms and exercise capacity (PAH patients; patient #2 (systemic sclerosis associated PAH), on treprostinil, sildenafil, dopamine): some improvement
PAH related hospitalizations (PAH patients; patient #2, 12 months after initiation (4 in the 15 months prior)): free from any PAH related hospitalizations
CO (PAH patients; [5]): 3.4 L/min
NT-pro BNP (PAH patients; [5]): 1,895 pg/mL
NT-pro BNP reduction compared to baseline (PAH patients; [5]): 30%
NYHA symptoms (PAH patients; [5]): stable NYHA III symptoms
PAWP (PAH patients; [5]): 10 mmHg
PVR (PAH patients; [5]): 14.1 WU
SVO2 (PAH patients; [5]): 59%
increase in 6 MWD (PAH patients; [5]): 94 meter
mPAP (PAH patients; [5]): 58 mmHg
mRAP (PAH patients; [5]): 7 mmHg
CI, cMRI (PAH patients; [6]): improvement
RVEDVi, cMRI (PAH patients; [6]): stable
RVEF, cMRI (PAH patients; [6]): substantial improvement
RVSVi, cMRI (PAH patients; [6]): improvement
REVEAL risk score (PAH patients; patient #2, on treatment (from 12)): 11
NT-pro BNP (PAH patients; patient #2, within 1 month (from 2,669)): 1,895 pg/mL
6 MWD improved by (PAH patients; [7]): 18 meters
NT-pro BNP (PAH patients; [7]): 1,580 pg/mL
NYHA symptoms (PAH patients; [7]): stable NYHA III symptoms
symptoms (PAH patients; patient #3 (drugs and toxins associated PAH), over a 5-months period, on treprostinil, sildenafil): symptomatic improvement
BMPR2 signaling (biomarker data) (patients with PAH; PAH patients): increase in BMPR2 signaling
drug-related serious adverse events (patients with PAH; all tested doses): no drug-related serious adverse events
incidences of hypertension or cardiovascular events (patients with PAH; all tested doses): no incidences of hypertension or cardiovascular events
tolerability (patients with PAH; all tested doses (goal blood level <2, 2-3, 3-5 ng/ml)): well tolerated
BMPR2 signaling (activation of the BMP pathway measured by luminescence) [1]: increased BMPR2 signaling
